From the supplement of paper PMC10307832

Legend:
Assay in all cases: relative viability (nuclei count vs DMSO), 5 days (fraction); higher = more cells survive
Cediranib + Trametinib = compound: COc1cc2c(Oc3ccc4[nH]c(C)cc4c3F)ncnc2cc1OCCCN1CCCC1 [Cediranib] + CC(=O)Nc1cccc(-n2c(=O)n(C3CC3)c(=O)c3c(Nc4ccc(I)cc4F)n(C)c(=O)c(C)c32)c1 [Trametinib] (partner 0.02 µM)
Summary of the method: (§1)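 Lung cancer cell lines in 1536-well plates got either a single drug or a fixed anchor-drug dose together with five library-drug doses (not always all listed) in √10 steps, by pin tool, on the day after seeding. Nuclei were counted after 5 days, and relative viability is the treated-to-vehicle ratio of nuclei counts. Values are medians of duplicate plates.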

Cediranib + Dasatinib = compound: COc1cc2c(Oc3ccc4[nH]c(C)cc4c3F)ncnc2cc1OCCCN1CCCC1 [Cediranib] + Cc1nc(Nc2ncc(C(=O)Nc3c(C)cccc3Cl)s2)cc(N2CCN(CCO)CC2)n1 [Dasatinib] (partner 0.075 µM)
Summary of the method: as §1

Decitabine + Linsitinib = compound: Nc1ncn([C@H]2C[C@H](O)[C@@H](CO)O2)c(=O)n1 [Decitabine] + C[C@]1(O)C[C@@H](c2nc(-c3ccc4ccc(-c5ccccc5)nc4c3)c3c(N)nccn32)C1 [Linsitinib] (partner 1 µM)
Summary of the method: as §1

Decitabine + Dasatinib = compound: Nc1ncn([C@H]2C[C@H](O)[C@@H](CO)O2)c(=O)n1 [Decitabine] + Cc1nc(Nc2ncc(C(=O)Nc3c(C)cccc3Cl)s2)cc(N2CCN(CCO)CC2)n1 [Dasatinib] (partner 0.075 µM)
Summary of the method: as §1

Cell Line	relative viability (Cediranib + Trametinib; first compound 0.04 µM)	relative viability (Cediranib + Trametinib; first compound 0.1265 µM)	relative viability (Cediranib + Trametinib; first compound 0.4 µM)	relative viability (Cediranib + Trametinib; first compound 1.265 µM)	relative viability (Cediranib + Trametinib; first compound 4 µM)	relative viability (Cediranib + Dasatinib; first compound 0.04 µM)	relative viability (Cediranib + Dasatinib; first compound 0.1265 µM)	relative viability (Cediranib + Dasatinib; first compound 0.4 µM)	relative viability (Cediranib + Dasatinib; first compound 1.265 µM)	relative viability (Cediranib + Dasatinib; first compound 4 µM)	relative viability (Decitabine + Linsitinib; first compound 0.04 µM)	relative viability (Decitabine + Linsitinib; first compound 0.1265 µM)	relative viability (Decitabine + Linsitinib; first compound 0.4 µM)	relative viability (Decitabine + Linsitinib; first compound 1.265 µM)	relative viability (Decitabine + Linsitinib; first compound 4 µM)	relative viability (Decitabine + Dasatinib; first compound 0.04 µM)	relative viability (Decitabine + Dasatinib; first compound 0.1265 µM)	relative viability (Decitabine + Dasatinib; first compound 0.4 µM)	relative viability (Decitabine + Dasatinib; first compound 1.265 µM)	relative viability (Decitabine + Dasatinib; first compound 4 µM)
NCI-H358	0.148	0.156	0.123	0.106	0.131	0.174	0.239	0.194	0.137	0.173	0.87	0.822	0.521	0.272	0.293	0.255	0.203	0.216	0.137	0.153
NCI-H441	0.631	0.504	0.408	0.483	0.399	0.466		0.678	0.559	0.772	0.282	0.407	0.272	0.19	0.165	0.335	0.266	0.26	0.211	0.206
NCI-H460	0.111	0.156	0.138	0.153	0.214	0.51	0.634	0.466	0.459	0.562	0.651	0.855	0.669	0.168	0.114	0.453	0.682	0.341	0.239	0.183
NCI-H520	0.783	0.435	0.54	0.483	0.521	0.264	0.238	0.162	0.155	0.174	1.13	0.916	0.633	0.333	0.324	0.263	0.242	0.217	0.239	0.19
NCI-H596	0.767	0.778	0.73	0.771	0.918	0.67	0.616	0.548		0.618	1.07	0.983	0.885	0.826	0.839	0.59	0.585		0.508	0.435
NCI-H647	0.48	0.428	0.441	0.515	0.491	0.215	0.177	0.102	0.22	0.224	0.989	0.874	0.759	0.234	0.237	0.212	0.261	0.196	0.104	0.0939
NCI-H650	0.96	0.85	1.06	1.09	1.03	0.434	0.458	0.434	0.453	0.482	0.722	0.538	0.298	0.258	0.32	0.422	0.443	0.357	0.344	0.275
NCI-H661	0.609	0.751	0.567	0.522	0.61	1.01	1.28	0.842	0.926	0.976	0.566	0.502	0.406	0.248	0.267	0.679	0.629	0.475	0.305	0.347
NCI-H727	0.374	0.376	0.358	0.374	0.384			0.358	0.337	0.367	0.303	0.232	0.302	0.282	0.234	0.397	0.458	0.338	0.334	0.34
NCI-H838	0.508	0.494	0.491	0.514	0.705	0.292	0.268	0.285	0.241	0.315	0.798	0.561	0.333	0.318	0.264	0.326	0.325	0.241	0.273	0.242
NCI-H1355	0.401	0.432	0.417	0.439	0.464	0.686	0.745	0.658	0.655	0.747	0.663	0.622	0.52	0.348	0.827	0.61	0.6	0.369	0.276	0.296
NCI-H1395	1.05	1.04	0.999	0.954	0.904	0.44	0.45	0.37	0.374	0.405	0.768	0.938	0.597	0.63	0.509	0.409	0.416	0.428	0.413	0.417
NCI-H1437	0.521	0.449	0.509	0.625	0.621	0.455	0.543	0.445	0.385	0.399	0.894	0.771	0.385	0.259	0.233	0.357	0.376	0.256	0.167	0.169
NCI-H1651	0.826	0.874	0.846	0.855	0.821	0.53	0.46	0.432	0.385	0.343	0.865	0.888	0.888	0.839	0.733	0.418	0.506	0.398	0.341	0.385
NCI-H1666	0.87	0.655	0.838	0.844	0.877	0.831	0.888	0.797	0.829	0.762	0.816	0.706	0.672	0.629	0.689	0.773	0.735	0.684	0.636	0.617
NCI-H1734	0.658	0.663	0.71	0.633	0.683	0.463	0.647	0.479	0.364	0.518	0.739	0.691	0.698	0.459	0.348	0.433	0.378	0.423	0.298	0.219

Cell Line	relative viability (Cediranib + Trametinib; first compound 0.04 µM)	relative viability (Cediranib + Trametinib; first compound 0.1265 µM)	relative viability (Cediranib + Trametinib; first compound 0.4 µM)	relative viability (Cediranib + Trametinib; first compound 1.265 µM)	relative viability (Cediranib + Trametinib; first compound 4 µM)	relative viability (Cediranib + Dasatinib; first compound 0.04 µM)	relative viability (Cediranib + Dasatinib; first compound 0.1265 µM)	relative viability (Cediranib + Dasatinib; first compound 0.4 µM)	relative viability (Cediranib + Dasatinib; first compound 1.265 µM)	relative viability (Cediranib + Dasatinib; first compound 4 µM)	relative viability (Decitabine + Linsitinib; first compound 0.04 µM)	relative viability (Decitabine + Linsitinib; first compound 0.1265 µM)	relative viability (Decitabine + Linsitinib; first compound 0.4 µM)	relative viability (Decitabine + Linsitinib; first compound 1.265 µM)	relative viability (Decitabine + Linsitinib; first compound 4 µM)	relative viability (Decitabine + Dasatinib; first compound 0.04 µM)	relative viability (Decitabine + Dasatinib; first compound 0.1265 µM)	relative viability (Decitabine + Dasatinib; first compound 0.4 µM)	relative viability (Decitabine + Dasatinib; first compound 1.265 µM)	relative viability (Decitabine + Dasatinib; first compound 4 µM)
NCI-H1755	0.8	0.804	0.709	0.81	0.783	0.471	0.59	0.343	0.463	0.424	0.936	0.948	0.915	0.688	0.429	0.47	0.467	0.422	0.365	0.306
NCI-H1792		0.407	0.375	0.521	0.458	0.823	0.872	0.557	0.923	0.957	0.643	0.568	0.531	0.378	0.333	0.835	0.86	0.861	0.677	0.558
NCI-H1793	0.449	0.446	0.407	0.435	0.432	0.317	0.415	0.398		0.501	0.848	0.947	0.854	0.5	0.434	0.347	0.394	0.382	0.246	0.239
NCI-H1915	0.318	0.308	0.3	0.307	0.272	0.279	0.305	0.305	0.324	0.345	0.586	0.396	0.353	0.286	0.276	0.253	0.228	0.189	0.2	0.193
NCI-H1944	0.402	0.377	0.409	0.4	0.474	0.216	0.227	0.221	0.193	0.236	1.06	0.962	0.934	0.667	0.642	0.201	0.242	0.177	0.2	0.211
NCI-H1975	0.377	0.388	0.338	0.373	0.337	0.361	0.35	0.337	0.356	0.352	0.706	0.525	0.346	0.326	0.369	0.325	0.258	0.197	0.194	0.15
NCI-H1993		0.48	0.56	0.504	0.641	0.567	0.702	0.537	0.434	0.649	0.767	0.745	0.763	0.718	0.659	0.542	0.57	0.608	0.484	0.55
NCI-H2009	0.288	0.335	0.237	0.213	0.276	0.311	0.523	0.301	0.297	0.309	1.08	0.801	0.601	0.383	0.33	0.264	0.273	0.252	0.204	0.185
NCI-H2023	0.592	0.585	0.565	0.591	0.905	0.594	0.623	0.567	0.537	0.668	0.588	0.524	0.406	0.237	0.195	0.41	0.4	0.284	0.173	0.141
NCI-H2085	0.571	0.523	0.475	0.49	0.526	0.257	0.26	0.273	0.272	0.23	0.744	0.615	0.508	0.392	0.372	0.25	0.256	0.285	0.279	0.204
NCI-H2087	0.221	0.29	0.179	0.183	0.288	0.872	0.953	0.801	0.944	0.905	0.659	0.678	0.591	0.41	0.384	0.523	0.452	0.358	0.246	0.23
NCI-H2126	0.575	0.551	0.551	0.578	0.531	0.634	0.569	0.609	0.554	0.543	0.698	0.677	0.591	0.533	0.489	0.603	0.547	0.429	0.421	0.376
NCI-H2228	0.46	0.376	0.398	0.565	0.505	0.634	0.505	0.52	0.54	0.601	0.377	0.589	0.613	0.356	0.291	0.324	0.354	0.135	0.161	0.155
NCI-H2347	0.316	0.282	0.233	0.286	0.318	0.262	0.288	0.268	0.277	0.381	0.936	0.935	0.725	0.639	0.625	0.295	0.315	0.351	0.283	0.286
NCI-H2405	0.647	0.941	0.562	0.636	0.614	0.2	0.583	0.227	0.196	0.218	0.838	0.891	0.74	0.548	0.465	0.209	0.194	0.286	0.204	0.203
NCI-H3122	0.226		0.218	0.242	0.282	0.901	0.694	0.731	0.542	0.897	1.01	1.01	0.941	0.788	0.711	0.665	0.833	0.233	0.321	0.459
